Reference: patent US12667559B2, “Dihydronaphthyridinone compound, and preparation method therefor and medical use thereof” (GENFLEET THERAPEUTICS (SHANGHAI) INC., priority 2020, dated 2026)
Read-outs that look alike come from different tables or passages of the source.

System: U937 cells
Test: Inhibitory activity against TNF-α induced programmed cell necrosis (U937 cells, CellTiter-Glo)
Format: cell-based, human
Conditions: read-out: U937 IC50
[1] = Homo sapiens, U-937, 48 h, U937 cells, human TNF-α and Q-VD-Oph induced necrosis, 48 hours, survival rate
[2] = U937 cells, human TNF-α and Q-VD-Oph induced necrosis, 48 hours, survival rate
[3] = U-937, U937 cells, human TNF-α and Q-VD-Oph induced necrosis, 48 hours, survival rate

Row | SMILES | IC50 [1] [nM] | other results
1 | Nc1nc2cc(-c3cnc4c(c3)C(=O)N(Cc3cc(F)ccc3OC3CCOCC3)CC4)ccn2n1 [Z65] | 0.5 | 
2 | CC(c1cc(F)ccc1-c1cnn(C)c1)N1CCc2ncc(-c3ccn4nc(N)nc4c3)cc2C1=O (centres unmarked) [Z80, 3-(2-amino-[1,2,4]triazolo[1,5-a]pyridyl-7-yl)-6-(1-(5-fluoro-2-(1-methyl-1H-pyrazol-4-yl)phenyl)ethyl)-7,8-dihydro-1,6-naphthyridin-5(6H)-one] |  | IC50 [2]: 19.8 nM
3 | O=C(COCc1ccccc1)Nc1cn2nc(-c3cnc4c(c3)C(=O)N(Cc3cc(F)cc(F)c3OC3CCOCC3)CC4)ccc2n1 [Z94, 2-(Benzoxy)-N-(6-(6-(3,5-difluoro-2-((tetrahydro-2H-pyran-4-yl)oxy)benzyl)-5-oxo-5,6,7,8-tetrahydro-1,6-naphthyridin-3-yl)imidazo[1,2-b]pyridazin-2-yl)acetamide] | 2.5 | 
4 | Cc1nc2c(cc1-c1ccn3nc(N)nc3c1)C(=O)N(Cc1ncccc1OC1CC1)CC2 [Z93] | 13 | 
5 | C[C@@H](c1ccccc1OC(F)(F)F)N1CCc2ncc(-c3ccn4nc(N)nc4c3)cc2C1=O [Z46-1, (S)-3-(2-amino-[1,2,4]triazolo[1,5-a]pyridyl-7-yl)-6-(1-(2-(trifluoromethoxy)phenyl)ethyl)-7,8-dihydro-1,6-naphthyridin-5(6H)-one] | 7.4 | 
6 | Nc1nc2cc(-c3cnc4c(c3)C(=O)N(Cc3cccnc3OC3CC3)CC4)ccn2n1 [Z77] | 143 | 
7 | Cc1c(-c2cnc3c(c2)C(=O)N(Cc2ncccc2OC2CC2)CC3)ccn2nc(N)nc12 [Z98, 3-(2-amino-8-methyl-[1,2,4]triazolo[1,5-a]pyridyl-7-yl)-6-((3-cyclopropoxypyridyl-2-yl)methyl)-7,8-dihydro-1,6-naphthyridin-5(6H)-one] | 417 | 
8 | Nc1nc2cc(-c3cnc4c(c3)C(=O)N(Cc3cc(F)ccc3CN3CCOCC3)CC4)ccn2n1 [Z54, 3-(2-amino-[1,2,4]triazolo[1,5-a]pyridyl-7-yl)-6-(5-fluoro-2-(morpholinomethyl)benzyl)-7,8-dihydro-1,6-naphthyridin-5(6H)-one] | 12 | 
9 | Cn1c(N)nc2ccc(-c3cnc4c(c3)C(=O)N(Cc3cc(OC(F)(F)F)ccc3F)CC4)cc21 [Z14, 3-(2-amino-1-methyl-1H-benzo[d]imidazol-6-yl)-6-(2-fluoro-5-(trifluoromethoxy)benzyl)-7,8-dihydro-1,6-naphthyridin-5(6H)-one] |  | IC50 (Homo sapiens, U-937, 48 h): 10.2 nM
10 | CC(=O)Nc1cn2nc(-c3cnc4c(c3)C(=O)N(Cc3cc(F)ccc3-c3cnn(C)c3)CC4)ccc2n1 [Z23, N-(6-(6-(5-fluoro-2-(1-methyl-1H-pyrazol-4-yl)benzyl)-5-oxo-5,6,7,8-tetrahydro-1,6-naphthyridin-3-yl)imidazo[1,2-b]pyridazin-2-yl)acetamide] |  | IC50 [3]: 24.3 nM
11 | CC(=O)Nc1cn2nc(-c3cnc4c(c3)C(=O)N(Cc3cc(OC(F)(F)F)ccc3F)CC4)ccc2n1 [Z9, N-(6-(6-(2-fluoro-5-(trifluoromethoxy)benzyl)-5-oxo-5,6,7,8-tetrahydro-1,6-naphthyridin-3-yl)imidazo[1,2-b]pyridazin-2-yl)acetamide] | 10.4 | 
12 | CC(=O)Nc1cn2nc(-c3cnc4c(c3)C(=O)N(Cc3cc(F)ccc3OC3CCCC3)CC4)ccc2n1 [Z6, N-(6-(6-(2-(cyclopentyloxy)-5-fluorobenzyl)-5-oxo-5,6,7,8-tetrahydro-1,6-naphthyridin-3-yl)imidazol[1,2-b]pyridazin-2-yl)acetamide] | 0.4 | 
13 | CC(=O)Nc1cn2nc(-c3cnc4c(c3)C(=O)N(Cc3cc(F)ccc3OC3CCOCC3)CC4)ccc2n1 [Z21, N-(6-(6-(5-fluoro-2-((tetrahydro-2H-pyran-4-yl)oxy)benzyl)-5-oxo-5,6,7,8-tetrahydro-1,6-naphthyridin-3-yl)imidazo[1,2-b]pyridazin-2-yl)acetamide] |  | IC50 (Homo sapiens, U-937, 48 h): 0.6 nM
14 | C[C@@](O)(C(=O)N1C[C@@H](F)[C@@H](N2CCc3ncc(-c4ccc5c(N)ncnn45)cc3C2=O)C1)C(F)(F)F [Z31-1] | 7.4 | 
15 | C[C@H](c1ccc(F)cc1)n1cc(N2CCc3ncc(-c4cc(C(F)(F)F)c5c(N)ncnn45)cc3C2=O)cn1 (single isomer, unassigned) [Z35-1] | 0.3 | 
16 | O=C1c2cc(-c3ccn4ncnc4c3)cnc2CCN1Cc1cc(F)cc(F)c1OC1CCOCC1 [Z13, 3-([1,2,4]triazolo[1,5-a]pyridin-7-yl)-6-(3,5-difluoro-2-((tetrahydro-2H-pyran-4-yl)oxy)benzyl)-7,8-dihydro-1,6-naphthyridin-5(6H)-one] | 1.7 | 
17 | Nc1nc2cc(-c3cnc4c(c3)C(=O)N(Cc3ncccc3OC3CC3)CC4)ccn2n1 [Z78] | 59.5 | 
18 | [2H]C([2H])([2H])C(=O)Nc1cn2nc(-c3cnc4c(c3)C(=O)N(Cc3cc(F)cc(F)c3OC3CCOCC3)CC4)ccc2n1 [Z38, N-(6-(6-(3,5-difluoro-2-((tetrahydro-2H-pyran-4-yl)oxy)benzyl)-5-oxo-5,6,7,8-tetrahydro-1,6-naphthyridin-3-yl)imidazo[1,2-b]pyridazin-2-yl)acetamide-2,2,2-d3] |  | IC50 [3]: 1.3 nM
19 | Nc1nc2ccc(-c3cnc4c(c3)C(=O)N(Cc3cc(OC(F)(F)F)ccc3F)CC4)cc2[nH]1 [Z18, 3-(2-amino-1H-benzo[d]imidazol-6-yl)-6-(2-fluoro-5-(trifluoromethoxy)benzyl)-7,8-dihydro-1,6-naphthyridin-5(6H)-one] |  | IC50 [3]: 70.2 nM
20 | Cc1cc(-c2cnc3c(c2)C(=O)N([C@@H]2CN(C(=O)[C@@](C)(O)C(F)(F)F)C[C@@H]2F)CC3)n2ncnc(N)c12 (single isomer, unassigned) [Z30-2] |  | IC50 [2]: 3.4 nM
21 | Nc1ncnn2c(-c3cnc4c(c3)C(=O)N(Cc3cc(OC(F)(F)F)ccc3F)CC4)cc(C(F)(F)F)c12 [Z24, 3-(4-amino-5-(trifluoromethyl)pyrrolo[2,1-f][1,2,4]triazin-7-yl)-6-(2-fluoro-5-(trifluoromethoxy)benzyl)-7,8-dihydro-1,6-naphthyridin-5(6H)-one] |  | IC50 [3]: 36.5 nM
22 | Nc1nc2cc(-c3cnc4c(c3)C(=O)N(Cc3cc(OC(F)(F)F)ccc3F)CC4)ccn2n1 [Z48, 3-(2-amino-[1,2,4]triazolo[1,5-a]pyridyl-7-yl)-6-(2-fluoro-5-(trifluoromethoxy)benzyl)-7,8-dihydro-1,6-naphthyridin-5(6H)-one] |  | IC50 [3]: 6 nM
23 | Nc1nc2cc(-c3cnc4c(c3)C(=O)N(Cc3cc(F)ccc3OC3CCOC3)CC4)ccn2n1 (centres unmarked) [Z66] | 2.3 | 
24 | CC(=O)Nc1cn2nc(-c3cnc4c(c3)C(=O)N(Cc3cccc(OC(F)(F)F)c3)CC4)ccc2n1 [Z8, N-(6-(5-oxo-6-(3-(trifluoromethoxy)benzyl)-5,6,7,8-tetrahydro-1,6-naphthyridin-3-yl)imidazo[1,2-b]pyridazin-2-yl)acetamide] | 40.3 | 
25 | Cc1cc(-c2cnc3c(c2)C(=O)N([C@@H]2CN(C(=O)[C@@](C)(O)C(F)(F)F)C[C@@H]2F)CC3)n2ncnc(N)c12 [Z30, Cis-3-(4-amino-5-methylpyrrolo[2,1-f][1,2,4]triazin-7-yl)-6-(4-fluoro-1-((R)-3,3,3-trifluoro-2-hydroxy-2-methylpropionyl)pyrrolidin-3-yl)-7,8-dihydro-1,6-naphthyridin-5(6H)-one] |  | IC50 [2]: 9.1 nM
26 | O=C(Nc1cn2nc(-c3cnc4c(c3)C(=O)N(Cc3cc(F)cc(F)c3OC3CCOCC3)CC4)ccc2n1)C1CC1 [Z37, N-(6-(6-(3,5-difluoro-2-((tetrahydro-2H-pyran-4-yl)oxy)benzyl)-5-oxo-5,6,7,8-tetrahydro-1,6-naphthyridin-3-yl)imidazo[1,2-b]pyridazin-2-yl)cyclopropanecarboxamide] | 0.5 | 
